Assay results published in ChEMBL document CHEMBL1201862, “PubChem BioAssay data set” (2004).
The source made the active and inactive calls.

Experiments:
Escherichia coli [1] = assay: microbe, parasite or virus in culture
[2] = molecular target: T1, Delta-type opioid receptor (Homo sapiens, UniProt P41143); assay: HTS Image-Based Screen for Agonists of the DOR Receptor. [Related pubchem assays (depositor defined):AID1777, AID1786, AID2133]; format: functional
[3] = HeLa cell cytotoxicity, dose response, cytotoxicity control for MgcRacGAP inhibitor project (AID 624300); format: functional
[4] = molecular target: T2, Mannose-6-phosphate isomerase (Homo sapiens, UniProt P34949); assay: inhibitors of human PMI, primary screen, biochemical, fluorescence intensity, coupled assay (AID 1209)
T2 sequence (P34949 whole entry): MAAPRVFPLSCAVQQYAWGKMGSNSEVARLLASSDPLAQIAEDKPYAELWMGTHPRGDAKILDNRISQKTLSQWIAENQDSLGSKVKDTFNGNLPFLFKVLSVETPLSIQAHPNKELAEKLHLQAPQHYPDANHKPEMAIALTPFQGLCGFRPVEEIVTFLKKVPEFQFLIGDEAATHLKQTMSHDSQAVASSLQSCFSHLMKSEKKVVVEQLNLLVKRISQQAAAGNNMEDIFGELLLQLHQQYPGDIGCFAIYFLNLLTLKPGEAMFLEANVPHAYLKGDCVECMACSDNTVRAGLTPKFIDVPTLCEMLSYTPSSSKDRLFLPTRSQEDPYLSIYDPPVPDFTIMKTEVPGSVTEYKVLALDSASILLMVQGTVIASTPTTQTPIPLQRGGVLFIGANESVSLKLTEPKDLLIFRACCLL

[5] = molecular target: Heat shock protein HSP 90-alpha (Homo sapiens, UniProt P07900); format: functional, organism-based
[6] = molecular target: T3, V-type proton ATPase subunit c' (Saccharomyces cerevisiae S288c, UniProt P32842); assay: Dose Response of Small Molecules that Regulate V-ATPase Proton Transport in Yeast using pHLuorin, Cherry Pick 1. [Related pubchem assays (depositor defined):AID504622]; format: functional
[7] = molecular target: T3, V-type proton ATPase subunit c'; assay: Dose Response of Small Molecules that Regulate V-ATPase Proton Transport in Yeast using pHLuorin, Cherry Pick 2.; format: functional; settings: read-out: EC50_MICROM
Melanocortin receptor 4 = Melanocortin receptor 4 (Homo sapiens, UniProt P32245); assay: MC4R antagonist potency on cAMP, dose response, cell-based, TR-FRET, biased antagonists (AID 602298); format: functional;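 note: antagonist potency against agonist-stimulated cAMP production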
[8] = molecular target: T1, Delta-type opioid receptor; assay: HTS Image-Based Screen for Antagonists of the DOR Receptor. [Related pubchem assays (depositor defined):AID1777, AID1785, AID1786, AID2133]; format: functional
Mu-type opioid receptor = Mu-type opioid receptor (Homo sapiens, UniProt P35372); assay: HTS Image-Based Screen for Agonists of the MOR Receptor. [Related pubchem assays (depositor defined):AID1777, AID1785, AID1786, AID2133]; format: functional;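 note: imaging of beta-arrestin GFP recruitment into spots after receptor activation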
[9] = molecular target: T4, Kappa-type opioid receptor (Homo sapiens, UniProt P41145); format: functional
[10] = molecular target: T4, Kappa-type opioid receptor; format: functional; remark: listed apart in the source
[11] = nonselective inhibitors of cellular cAMP signaling, dose response, counter-screen for MC4R biased antagonist project, cell-based, TR-FRET cAMP detection (AID 602305); format: functional;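 note: U2OS cells stimulated with forskolin near its EC80 as the cAMP inducer; potency is for inhibition of forskolin-stimulated cAMP signaling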
[12] = molecular target: G-protein coupled receptor 35 (Homo sapiens, UniProt Q9HC97); assay: GPR35 antagonists blocking zaprinast-driven arrestin recruitment, primary screen, imaging, U2OS, beta-arrestin-GFP, zaprinast agonist (AID 2058); format: functional;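 note: antagonist potency meaning inhibition of agonist-induced arrestin redistribution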
[13] = Shn3 3'UTR reporter inhibitors, dose response, cell-based, Clone20 osteoblasts, firefly luciferase, cherry-picked (AID 624132); format: functional;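 note: firefly luciferase luminescence from reporter carrying the Shn3 3'UTR in osteoblasts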
Escherichia coli [14] = assay: microbe, parasite or virus in culture; remark: listed apart in the source
[15] = control 3'UTR Renilla luciferase suppression, dose response, counter-screen for Shn3 inhibitor project, cell-based, Clone20-Shn3RL, cherry-picked (AID 624133); format: functional
[16] = molecular target: T5, Bifunctional protein GlmU (Mycobacterium tuberculosis, UniProt P9WMN3); assay: Inhibitors of Mycobacterial Glucosamine-1-phosphate acetyl transferase (GlmU). Secondary screen.; set-up: species or system Mycobacterium tuberculosis H37Rv
T5 sequence (P9WMN3 whole entry): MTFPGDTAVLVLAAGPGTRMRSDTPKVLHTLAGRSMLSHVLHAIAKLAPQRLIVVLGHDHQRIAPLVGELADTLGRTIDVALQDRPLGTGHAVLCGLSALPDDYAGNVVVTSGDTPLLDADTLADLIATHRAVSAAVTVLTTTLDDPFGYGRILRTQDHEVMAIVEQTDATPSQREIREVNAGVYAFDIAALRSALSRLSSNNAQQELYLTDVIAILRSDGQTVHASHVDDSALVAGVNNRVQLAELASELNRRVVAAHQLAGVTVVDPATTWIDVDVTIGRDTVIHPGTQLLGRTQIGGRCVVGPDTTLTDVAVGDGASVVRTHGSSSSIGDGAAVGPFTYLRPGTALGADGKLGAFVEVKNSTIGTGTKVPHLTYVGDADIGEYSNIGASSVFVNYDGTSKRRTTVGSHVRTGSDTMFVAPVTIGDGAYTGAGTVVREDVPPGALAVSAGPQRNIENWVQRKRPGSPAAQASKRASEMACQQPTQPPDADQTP

[17] = HepG2 cell cytotoxicity, dose response, cytotoxicity control for Shn3 inhibitor project, CellTiter-Glo, cherry-picked (AID 624134); format: functional, cell-based
[18] = molecular target: T6, Rac GTPase-activating protein 1 (Homo sapiens, UniProt Q9H0H5); assay: MgcRacGAP GTPase-activating activity inhibitors, confirmation, biochemical, ADP Hunter fluorescence, primary and confirmatory (AID 624330); format: functional
T6 sequence (Q9H0H5 whole entry): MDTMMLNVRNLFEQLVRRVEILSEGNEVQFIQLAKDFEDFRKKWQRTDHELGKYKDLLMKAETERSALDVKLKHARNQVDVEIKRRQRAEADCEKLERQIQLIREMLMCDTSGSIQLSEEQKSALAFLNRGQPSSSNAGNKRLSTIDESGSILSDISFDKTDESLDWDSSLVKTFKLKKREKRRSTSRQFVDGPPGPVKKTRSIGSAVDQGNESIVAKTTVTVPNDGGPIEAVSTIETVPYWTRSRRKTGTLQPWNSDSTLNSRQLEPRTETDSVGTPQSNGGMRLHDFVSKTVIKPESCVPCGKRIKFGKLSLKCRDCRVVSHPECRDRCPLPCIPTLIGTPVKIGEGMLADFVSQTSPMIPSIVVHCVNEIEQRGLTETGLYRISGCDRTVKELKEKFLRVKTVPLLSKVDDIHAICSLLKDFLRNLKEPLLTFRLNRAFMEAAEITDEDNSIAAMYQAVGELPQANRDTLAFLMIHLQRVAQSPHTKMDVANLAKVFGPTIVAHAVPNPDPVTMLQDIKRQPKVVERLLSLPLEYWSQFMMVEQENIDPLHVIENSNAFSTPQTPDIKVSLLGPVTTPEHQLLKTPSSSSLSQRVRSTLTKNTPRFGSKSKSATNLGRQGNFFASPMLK

[19] = molecular target: Tyrosine-protein kinase Lyn (Homo sapiens, UniProt P07948); format: functional;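 note: lyn as one member of a kinase panel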
[20] = molecular target: Vascular endothelial growth factor receptor 3 (Homo sapiens, UniProt P35916); format: functional;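 note: value from a kinome-wide profiling panel, with FLT4 as the panel member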
[21] = molecular target: Tyrosine-protein kinase Fyn (Homo sapiens, UniProt P06241); format: functional
[22] = molecular target: Tyrosine-protein kinase Lck (Homo sapiens, UniProt P06239); format: functional;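 note: lck was assayed as one member of a kinase panel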
[23] = molecular target: Vascular endothelial growth factor receptor 2 (Homo sapiens, UniProt P35968); format: functional
[24] = molecular target: Tyrosine-protein kinase ABL1 (Homo sapiens, UniProt P00519); format: functional
[25] = molecular target: Proto-oncogene tyrosine-protein kinase Src (Homo sapiens, UniProt P12931); format: functional;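 note: SRC entry within a kinome-wide kinase profiling panel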
[26] = molecular target: Tyrosine-protein kinase Blk (Homo sapiens, UniProt P51451); format: functional;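 note: obtained as one member of a kinome-wide kinase assay panel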
[27] = molecular target: Macrophage colony-stimulating factor 1 receptor (Homo sapiens, UniProt P07333); format: functional;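 note: value comes from the Navigating the Kinome screening panel, CSF1R member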
[28] = molecular target: Receptor-type tyrosine-protein kinase FLT3 (Homo sapiens, UniProt P36888); format: functional;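 note: FLT3 was tested as one member of a kinome-wide kinase panel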
[29] = molecular target: Mast/stem cell growth factor receptor Kit (Homo sapiens, UniProt P10721); format: functional;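 note: KIT entry within a kinase panel assay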
[30] = molecular target: Vascular endothelial growth factor receptor 1 (Homo sapiens, UniProt P17948); format: functional;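 note: measured within a kinome-wide profiling panel, FLT1 as the panel member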
[31] = molecular target: T7, Neuropeptides B/W receptor type 1 (Homo sapiens, UniProt P48145); assay: GPR7 antagonist potency, late-stage follow-up, cell-based, fluorescence, dose response, set 5 (AID 588566); format: functional
T7 sequence (P48145 whole entry): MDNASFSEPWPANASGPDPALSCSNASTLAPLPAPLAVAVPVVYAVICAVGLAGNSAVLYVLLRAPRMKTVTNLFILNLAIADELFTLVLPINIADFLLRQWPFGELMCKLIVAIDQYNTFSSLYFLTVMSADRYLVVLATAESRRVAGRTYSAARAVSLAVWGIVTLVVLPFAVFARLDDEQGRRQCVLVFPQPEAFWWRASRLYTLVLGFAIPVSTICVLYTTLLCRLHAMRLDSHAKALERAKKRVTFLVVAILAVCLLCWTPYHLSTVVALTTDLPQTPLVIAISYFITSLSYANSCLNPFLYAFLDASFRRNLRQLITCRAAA

[32] = molecular target: Melanin-concentrating hormone receptor 1 (Homo sapiens, UniProt Q99705); assay: Late-stage fluorescence-based counterscreen for antagonists of the G-protein coupled receptor 7 (GPR7): cell-based dose response assay to identify antagonists of the melanin-concentrating hormone receptor 1 (MCHR1) Set 5.; format: functional

T4 sequence (P41145 whole entry): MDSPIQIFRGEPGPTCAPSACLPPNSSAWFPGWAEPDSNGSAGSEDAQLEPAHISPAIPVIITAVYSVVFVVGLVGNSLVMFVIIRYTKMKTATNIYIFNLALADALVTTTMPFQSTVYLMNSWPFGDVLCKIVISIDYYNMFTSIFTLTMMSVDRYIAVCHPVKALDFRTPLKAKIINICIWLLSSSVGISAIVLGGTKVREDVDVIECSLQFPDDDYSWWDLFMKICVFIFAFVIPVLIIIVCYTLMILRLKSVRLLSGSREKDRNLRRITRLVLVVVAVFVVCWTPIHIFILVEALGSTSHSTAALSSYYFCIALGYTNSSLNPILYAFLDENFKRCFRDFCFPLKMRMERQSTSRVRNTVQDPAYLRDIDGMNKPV
T3 sequence (P32842 whole entry): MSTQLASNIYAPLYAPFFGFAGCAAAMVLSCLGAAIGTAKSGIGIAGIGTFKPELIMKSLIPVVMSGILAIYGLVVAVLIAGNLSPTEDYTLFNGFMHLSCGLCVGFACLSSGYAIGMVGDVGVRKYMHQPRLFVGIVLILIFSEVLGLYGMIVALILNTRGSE
T1 sequence (P41143 whole entry): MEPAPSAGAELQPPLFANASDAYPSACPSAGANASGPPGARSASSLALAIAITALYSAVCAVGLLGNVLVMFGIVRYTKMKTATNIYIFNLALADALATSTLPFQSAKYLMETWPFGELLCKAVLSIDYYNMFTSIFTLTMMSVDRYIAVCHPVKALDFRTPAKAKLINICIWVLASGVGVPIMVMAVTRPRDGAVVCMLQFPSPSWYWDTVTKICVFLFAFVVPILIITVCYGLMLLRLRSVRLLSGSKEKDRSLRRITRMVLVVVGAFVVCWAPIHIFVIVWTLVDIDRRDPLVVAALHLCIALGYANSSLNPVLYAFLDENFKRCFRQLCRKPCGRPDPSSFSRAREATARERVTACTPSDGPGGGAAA
Sequence of Receptor-type tyrosine-protein kinase FLT3 (P36888 whole entry): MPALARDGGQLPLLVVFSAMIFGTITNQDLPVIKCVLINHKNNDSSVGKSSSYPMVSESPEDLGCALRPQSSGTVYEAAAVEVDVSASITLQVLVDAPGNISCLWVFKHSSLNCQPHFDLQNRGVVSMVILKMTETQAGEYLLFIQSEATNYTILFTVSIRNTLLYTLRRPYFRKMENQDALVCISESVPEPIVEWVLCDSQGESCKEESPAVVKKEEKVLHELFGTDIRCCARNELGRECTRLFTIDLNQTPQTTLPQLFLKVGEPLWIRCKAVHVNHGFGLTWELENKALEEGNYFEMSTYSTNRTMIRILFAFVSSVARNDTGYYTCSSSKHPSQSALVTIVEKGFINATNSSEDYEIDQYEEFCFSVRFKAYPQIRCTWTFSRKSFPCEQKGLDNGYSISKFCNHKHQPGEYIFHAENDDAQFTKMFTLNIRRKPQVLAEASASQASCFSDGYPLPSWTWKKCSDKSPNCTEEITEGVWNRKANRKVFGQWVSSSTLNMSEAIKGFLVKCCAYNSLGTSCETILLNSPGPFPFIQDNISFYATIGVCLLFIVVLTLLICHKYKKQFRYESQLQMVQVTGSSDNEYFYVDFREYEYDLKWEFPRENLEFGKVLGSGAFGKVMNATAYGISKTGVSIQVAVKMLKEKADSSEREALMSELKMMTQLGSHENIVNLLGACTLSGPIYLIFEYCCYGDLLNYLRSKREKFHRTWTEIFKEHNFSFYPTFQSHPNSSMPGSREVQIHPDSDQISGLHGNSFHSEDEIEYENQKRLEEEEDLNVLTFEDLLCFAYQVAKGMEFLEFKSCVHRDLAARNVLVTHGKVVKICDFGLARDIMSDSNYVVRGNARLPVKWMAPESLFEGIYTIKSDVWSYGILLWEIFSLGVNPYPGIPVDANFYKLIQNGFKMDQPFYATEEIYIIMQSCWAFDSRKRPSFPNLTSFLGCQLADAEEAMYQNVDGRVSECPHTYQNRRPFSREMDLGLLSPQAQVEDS
Sequence of Tyrosine-protein kinase Lyn (P07948 whole entry): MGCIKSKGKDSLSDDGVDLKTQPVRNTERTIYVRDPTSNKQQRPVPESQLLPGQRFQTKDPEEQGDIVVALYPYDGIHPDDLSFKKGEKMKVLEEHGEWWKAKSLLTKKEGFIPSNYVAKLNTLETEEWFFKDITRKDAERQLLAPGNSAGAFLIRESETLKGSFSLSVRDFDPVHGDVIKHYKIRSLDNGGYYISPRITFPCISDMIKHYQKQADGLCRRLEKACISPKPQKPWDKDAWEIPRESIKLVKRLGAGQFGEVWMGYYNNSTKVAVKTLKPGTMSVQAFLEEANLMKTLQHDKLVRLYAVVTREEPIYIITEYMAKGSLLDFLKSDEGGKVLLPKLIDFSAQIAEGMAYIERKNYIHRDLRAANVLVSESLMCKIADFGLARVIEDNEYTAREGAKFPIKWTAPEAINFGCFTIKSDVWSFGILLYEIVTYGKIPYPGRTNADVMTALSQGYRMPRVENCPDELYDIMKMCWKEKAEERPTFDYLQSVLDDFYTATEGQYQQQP
Sequence of Proto-oncogene tyrosine-protein kinase Src (P12931 2-536 limits assumed): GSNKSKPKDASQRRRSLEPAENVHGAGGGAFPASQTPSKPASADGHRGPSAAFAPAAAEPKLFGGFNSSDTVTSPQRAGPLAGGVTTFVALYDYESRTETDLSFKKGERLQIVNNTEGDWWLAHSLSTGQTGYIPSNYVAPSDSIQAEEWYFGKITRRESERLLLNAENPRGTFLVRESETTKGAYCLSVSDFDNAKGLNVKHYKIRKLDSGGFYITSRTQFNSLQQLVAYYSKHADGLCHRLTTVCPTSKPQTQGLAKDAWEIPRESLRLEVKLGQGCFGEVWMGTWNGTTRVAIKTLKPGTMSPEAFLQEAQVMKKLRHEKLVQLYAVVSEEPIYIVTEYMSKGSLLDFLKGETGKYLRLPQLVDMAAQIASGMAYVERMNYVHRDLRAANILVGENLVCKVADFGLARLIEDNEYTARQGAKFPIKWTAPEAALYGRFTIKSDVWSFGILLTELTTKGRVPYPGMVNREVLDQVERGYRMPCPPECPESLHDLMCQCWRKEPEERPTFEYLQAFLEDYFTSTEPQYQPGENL
Sequence of Tyrosine-protein kinase Blk (P51451 whole entry): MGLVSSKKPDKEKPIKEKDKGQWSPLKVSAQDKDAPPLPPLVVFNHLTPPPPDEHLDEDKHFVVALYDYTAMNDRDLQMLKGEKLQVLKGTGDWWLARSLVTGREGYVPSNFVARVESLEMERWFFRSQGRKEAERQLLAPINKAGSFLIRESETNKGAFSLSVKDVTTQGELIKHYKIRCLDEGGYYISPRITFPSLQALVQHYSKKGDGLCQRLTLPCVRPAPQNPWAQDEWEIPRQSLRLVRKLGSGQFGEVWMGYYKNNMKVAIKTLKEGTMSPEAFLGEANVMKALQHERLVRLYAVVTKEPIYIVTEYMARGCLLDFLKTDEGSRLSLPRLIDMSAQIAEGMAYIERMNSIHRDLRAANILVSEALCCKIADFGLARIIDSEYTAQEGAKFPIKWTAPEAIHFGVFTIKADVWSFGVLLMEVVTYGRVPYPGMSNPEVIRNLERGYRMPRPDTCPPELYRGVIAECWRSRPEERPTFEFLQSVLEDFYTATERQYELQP
Sequence of Melanocortin receptor 4 (P32245 whole entry): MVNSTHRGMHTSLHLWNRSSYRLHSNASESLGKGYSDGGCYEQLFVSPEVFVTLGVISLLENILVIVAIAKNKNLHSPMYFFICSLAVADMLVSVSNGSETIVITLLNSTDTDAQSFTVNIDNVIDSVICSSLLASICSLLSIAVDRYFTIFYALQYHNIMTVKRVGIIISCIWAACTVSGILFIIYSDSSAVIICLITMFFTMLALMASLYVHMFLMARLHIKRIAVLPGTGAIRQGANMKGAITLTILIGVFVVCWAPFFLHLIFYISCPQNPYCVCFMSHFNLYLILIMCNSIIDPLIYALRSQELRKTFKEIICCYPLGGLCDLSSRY
Sequence of Tyrosine-protein kinase ABL1 (P00519 whole entry): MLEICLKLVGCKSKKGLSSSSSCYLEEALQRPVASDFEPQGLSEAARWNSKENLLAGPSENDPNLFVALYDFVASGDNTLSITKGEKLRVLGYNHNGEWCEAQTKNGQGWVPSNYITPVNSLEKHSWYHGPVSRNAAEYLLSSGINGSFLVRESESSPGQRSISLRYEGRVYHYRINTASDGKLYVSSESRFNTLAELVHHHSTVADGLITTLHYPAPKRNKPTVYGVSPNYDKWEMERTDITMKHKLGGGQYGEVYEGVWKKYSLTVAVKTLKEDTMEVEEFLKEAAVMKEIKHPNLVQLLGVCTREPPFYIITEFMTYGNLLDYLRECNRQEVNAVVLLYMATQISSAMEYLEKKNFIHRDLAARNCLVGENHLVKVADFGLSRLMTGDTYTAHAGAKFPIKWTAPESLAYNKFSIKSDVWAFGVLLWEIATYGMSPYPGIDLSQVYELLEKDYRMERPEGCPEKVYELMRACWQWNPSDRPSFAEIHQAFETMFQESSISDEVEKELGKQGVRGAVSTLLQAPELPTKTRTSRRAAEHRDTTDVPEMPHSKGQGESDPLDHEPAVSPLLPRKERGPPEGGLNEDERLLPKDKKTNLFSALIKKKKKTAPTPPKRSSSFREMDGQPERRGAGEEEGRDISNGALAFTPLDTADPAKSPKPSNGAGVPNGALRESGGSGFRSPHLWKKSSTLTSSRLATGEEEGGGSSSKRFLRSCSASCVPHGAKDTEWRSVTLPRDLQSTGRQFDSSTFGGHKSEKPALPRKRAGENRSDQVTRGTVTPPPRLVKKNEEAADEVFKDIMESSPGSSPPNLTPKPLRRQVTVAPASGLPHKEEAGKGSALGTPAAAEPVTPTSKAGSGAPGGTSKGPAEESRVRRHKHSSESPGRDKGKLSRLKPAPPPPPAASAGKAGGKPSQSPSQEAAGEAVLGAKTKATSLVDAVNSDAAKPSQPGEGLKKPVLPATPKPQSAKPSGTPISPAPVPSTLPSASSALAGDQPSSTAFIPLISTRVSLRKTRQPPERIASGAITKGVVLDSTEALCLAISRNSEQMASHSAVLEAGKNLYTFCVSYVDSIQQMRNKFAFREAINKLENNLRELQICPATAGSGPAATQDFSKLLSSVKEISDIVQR

Cc1c(Cl)sn(-c2ccc(Cl)cc2)c1=O
AC50 (Escherichia coli [1]): 2640 nM (active) | EC50 [2]: > 32000 nM (inactive) | CC50 [3]: 9780 nM (active) | IC50 [4]: > 50000 nM (not active) | AC50 [5]: < 195 nM (active) | EC50 [6]: 5190 nM (active) | EC50 [7]: 1400 nM (active) | IC50 (Melanocortin receptor 4): 3750 nM (active) | IC50 [8]: > 32000 nM (inactive) | EC50 (Mu-type opioid receptor): > 32000 nM (inactive) | EC50 [9]: > 35000 nM | EC50 [10]: 6370 nM | IC50 [11]: 19600 nM (inactive) | IC50 [12]: 2720 nM (active) | AC50 [13]: 728 nM (active) | AC50 (Escherichia coli [14]): 6510 nM (active) | AC50 [15]: 3850 nM (active) | IC50 [16]: 118000 nM (active) | AC50 [17]: 19800 nM (active) | IC50 [18]: 49600 nM (active)

Cc1ccc(F)c(NC(=O)Nc2ccc(-c3c(F)ccc4[nH]nc(N)c34)cc2)c1
Ki [19]: 398 nM (active) | Ki [20]: 1 nM (active) | Ki [21]: 501 nM (active) | Ki [22]: 631 nM (active) | Ki [23]: 7.94 nM (active) | Ki [24]: 501 nM (active) | Ki [25]: 501 nM (active) | Ki [26]: 1580 nM (active) | Ki [27]: 1.26 nM (active) | Ki [28]: 0.794 nM (active) | Ki [29]: 1 nM (active) | Ki [30]: 0.251 nM (active)

N#CC(c1ccccc1)c1c(Br)cnn(Cc2cccc3ccccc23)c1=O (centres undefined)
IC50 [31]: 116 nM (active) | IC50 [32]: 16400 nM (inactive)
